Active and inactive are the calls of the source.
Key:
[1] = target: T1, Tyrosine-protein phosphatase non-receptor type 7 (Homo sapiens, UniProt P35236); experiment: inhibitors of human HePTP phosphatase, […], biochemical, absorbance, leukemia target (AID 521); assay type: functional
T1 sequence (P35236 whole entry): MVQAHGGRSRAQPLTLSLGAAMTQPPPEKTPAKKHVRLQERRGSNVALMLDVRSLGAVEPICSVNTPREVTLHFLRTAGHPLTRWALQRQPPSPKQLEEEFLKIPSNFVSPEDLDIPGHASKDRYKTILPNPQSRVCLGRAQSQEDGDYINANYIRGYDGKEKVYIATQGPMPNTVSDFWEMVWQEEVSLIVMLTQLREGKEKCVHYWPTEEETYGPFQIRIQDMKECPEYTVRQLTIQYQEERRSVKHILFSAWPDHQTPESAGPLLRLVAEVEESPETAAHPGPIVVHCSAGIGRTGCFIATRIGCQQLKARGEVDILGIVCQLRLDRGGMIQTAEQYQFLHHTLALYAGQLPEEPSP

[2] = target: T2, Oxysterols receptor LXR-beta (Homo sapiens, UniProt P55055); assay type: functional, cell-based;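 also: agonist activity at LXR measured by a cell-based luminescence readout across a dose range, run as a counterscreen for daf-12 agonists; HEK293 cells with Gal4-LXR fusion and GAL4-driven luciferase reporter; potency for activation of Gal4-LXR reporter so compounds are agonists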
T2 sequence (P55055 whole entry): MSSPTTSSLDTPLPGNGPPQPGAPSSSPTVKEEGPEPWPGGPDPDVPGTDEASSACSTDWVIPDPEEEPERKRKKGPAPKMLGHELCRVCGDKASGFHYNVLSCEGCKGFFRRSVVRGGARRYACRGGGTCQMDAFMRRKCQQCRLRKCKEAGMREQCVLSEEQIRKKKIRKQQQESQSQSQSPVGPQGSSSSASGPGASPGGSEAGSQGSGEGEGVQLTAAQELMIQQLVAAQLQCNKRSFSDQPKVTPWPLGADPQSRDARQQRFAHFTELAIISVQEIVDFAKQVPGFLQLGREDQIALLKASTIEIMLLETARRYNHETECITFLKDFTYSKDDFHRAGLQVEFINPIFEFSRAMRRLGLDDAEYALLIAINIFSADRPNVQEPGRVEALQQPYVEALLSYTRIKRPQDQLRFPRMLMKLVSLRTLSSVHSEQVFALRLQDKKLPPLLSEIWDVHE

[3] = target: Heat shock protein HSP 90-alpha (Homo sapiens, UniProt P07900); experiment: Luminescence-based dose response biochemical high throughput screening assay for inhibitors of the Heat Shock Protein 90 (HSP90). [Related pubchem assays: 1831 (Summary AID.), 1846 (Confirmation screen.), 1789 (Primary screen.)]
[4] = target: Mitogen-activated protein kinase 10 (Homo sapiens, UniProt P53779); experiment: Dose response biochemical screening assay for inhibitors of c-Jun N-Terminal Kinase 3 (JNK3). [Related pubchem assays: 746 ]
[5] = THP-1 cell cytotoxicity, dose response, cytotoxicity control for Vif-APOBEC3G degradation inhibitor project, THP-1 cells (AID 1117359); assay type: functional; conditions: Human immunodeficiency virus 1, THP-1
[6] = inhibitors of Vif binding to APOBEC3G peptide, primary screen, biochemical, TR-FRET, GST-Vif 1-94, biotin-A3G peptide, dose response retest (AID 1117319); assay type: functional;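 also: TR-FRET signal of purified GST-Vif binding a biotinylated A3G peptide; inhibitors lower the FRET signal by blocking Vif and A3G binding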
[7] = target: T3, COUP transcription factor 2 (Homo sapiens, UniProt P24468); experiment: Luminescence-based cell-based high throughput dose response assay to identify inhibitors of COUP-TFII (NR2F2).; assay type: functional;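 also: HEK293 cells transiently cotransfected with COUP-TFII expression vector and reporter; luciferase reporter luminescence driven by COUP-TFII from the pX2-168 reporter plasmid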
T3 sequence (P24468 whole entry): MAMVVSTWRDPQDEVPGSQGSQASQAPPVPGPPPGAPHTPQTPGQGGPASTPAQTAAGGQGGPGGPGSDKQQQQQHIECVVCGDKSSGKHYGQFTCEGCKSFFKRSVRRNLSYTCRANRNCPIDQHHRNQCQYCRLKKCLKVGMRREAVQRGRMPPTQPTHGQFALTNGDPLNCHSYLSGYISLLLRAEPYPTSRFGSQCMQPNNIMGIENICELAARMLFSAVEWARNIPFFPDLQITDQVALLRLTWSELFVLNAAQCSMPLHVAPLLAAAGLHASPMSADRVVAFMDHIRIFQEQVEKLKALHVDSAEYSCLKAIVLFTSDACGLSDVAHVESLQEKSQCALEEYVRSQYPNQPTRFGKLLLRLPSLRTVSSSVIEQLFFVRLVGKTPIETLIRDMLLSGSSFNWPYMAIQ

[8] = cytotoxicity toward NIH3T3 fibroblasts, dose response, counter-screen, cell-based, ATP luminescence, mouse fibroblasts (AID 2010); assay type: functional;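 also: cells exposed to compound for about 90 hours before reading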
[9] = Vero cell cytotoxicity, dose response, cytotoxicity control for Vif-APOBEC3G degradation inhibitor project, Vero cells (AID 1117358); assay type: functional; conditions: Human immunodeficiency virus 1, Vero
[10] = inhibitors of intracellular T. cruzi replication, confirmation, NIH3T3 host cells, beta-gal luminescence (AID 2044); assay type: functional, cell-based;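 also: intracellular parasites grown in NIH/3T3 mouse fibroblasts as host cells; luminescent beta-galactosidase reporter signal from transgenic T. cruzi replicating inside host cells; inhibitors lower the luminescence signal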
[11] = Luminescence Cell-Based Dose Response HTS to Identify Activators of Luciferase Translation or Activity in H4 […] Cells. [Related pubchem assays: 1829 (Project Summary), 1814 (Primary HTS)]; assay type: functional
[12] = Luminescence Cell-Based Dose Confirmation HTS to Identify Activators of 5'UTR Stem-Loop Driven Alpha-Synuclein mRNA Translation in H4 Neuroglioblastoma Cells. [Related pubchem assays: 1829 (Project Summary), 1814 (Primary HTS)]; assay type: functional
cells [13] = assay type: functional, cell-based
cells [14] = assay type: functional, cell-based; remark: listed apart in the source
H4 = experiment: Luminescence Cell-Based Dose Response HTS to Identify Activators of 5'UTR Stem-Loop Driven Prion Protein mRNA Translation in H4 Neuroglioblastoma Cells. [Related pubchem assays: 1829 (Project Summary), 1814 (Primary HTS)]; assay type: functional; conditions: Homo sapiens
[15] = Shn3 3'UTR reporter inhibitors, dose response, cell-based, Clone20 osteoblasts, firefly luciferase, cherry-picked (AID 624132); assay type: functional;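 also: firefly luciferase luminescence from reporter carrying the Shn3 3'UTR in osteoblasts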
Jurkat = experiment: antigen receptor-induced NF-kB inhibitors, dose response, Jurkat, luciferase reporter, luminescence, B- and T-cell (AID 489004); assay type: functional, cell-based; conditions: Homo sapiens;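 also: NF-kB luciferase reporter Jurkat cells stimulated with PMA plus ionomycin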
INS1 = experiment: beta cell apoptosis inhibitors, cytokine rescue, dose response, luminescence, retest (AID 449756); assay type: functional, cell-based; conditions: Rattus norvegicus;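 also: cell death triggered by IL-1 beta plus TNF-alpha plus IFN-gamma mixture; protective hits raise ATP signal compared with cytokine alone wells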
[16] = HepG2 cell cytotoxicity, dose response, cytotoxicity control for Shn3 inhibitor project, CellTiter-Glo, cherry-picked (AID 624134); assay type: functional, cell-based
[17] = target: T4, Microphthalmia-associated transcription factor (Homo sapiens, UniProt O75030); experiment: TRPM1 promoter luciferase signal decrease, dose response, MITF inhibitor project, cell-based, SK-MEL-5, cherry-picked, set 3 (AID 493073); assay type: functional
T4 sequence (O75030 whole entry): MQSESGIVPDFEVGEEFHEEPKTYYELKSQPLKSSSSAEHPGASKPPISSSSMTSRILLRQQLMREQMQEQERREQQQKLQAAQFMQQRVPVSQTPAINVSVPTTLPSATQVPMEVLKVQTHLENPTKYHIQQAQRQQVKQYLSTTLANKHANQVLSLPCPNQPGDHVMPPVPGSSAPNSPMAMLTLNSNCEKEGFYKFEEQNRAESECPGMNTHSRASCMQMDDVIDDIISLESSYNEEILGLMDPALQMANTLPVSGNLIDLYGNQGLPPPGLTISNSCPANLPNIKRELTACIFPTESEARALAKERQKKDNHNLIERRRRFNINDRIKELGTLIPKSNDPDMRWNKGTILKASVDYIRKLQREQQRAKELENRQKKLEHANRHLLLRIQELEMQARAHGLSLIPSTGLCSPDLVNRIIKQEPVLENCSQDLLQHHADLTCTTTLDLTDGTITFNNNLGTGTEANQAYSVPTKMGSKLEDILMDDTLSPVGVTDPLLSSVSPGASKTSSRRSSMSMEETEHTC

[18] = control 3'UTR Renilla luciferase suppression, dose response, counter-screen for Shn3 inhibitor project, cell-based, Clone20-Shn3RL, cherry-picked (AID 624133); assay type: functional
[19] = cytotoxicity in HEK-293T NF-kB-Luc cells, dose response, cytotoxicity control for B/T-cell NF-kB inhibitor project, cell-based, uHTS hits (AID 489019); assay type: functional;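 also: IC50 reflects cytotoxicity as loss of cell viability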
[20] = ZM109 Env clade C HIV-1 fusion inhibitors, dose response, HeLa effector, CEM target cells, luciferase, cherry-pick (AID 652058); assay type: functional, cell-based
[21] = inhibitors of clade B AD8 Env fusion, dose response, cell-based, cherry-pick (AID 652062); assay type: functional;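 also: luciferase signal from cell-cell fusion driven by HIV-1 clade B AD8 Env; potency is for inhibitors of fusion seen as a drop in luminescence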
[22] = off-target signal loss in HeLa-CEM21 co-culture – HeLa F-luc CTL cells, cherry-picked, counter-screen for HIV-1 Env fusion inhibitor project, dose response (AID 652040); assay type: functional, cell-based;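 also: potency for signal decrease marking cytotoxic or nonspecific inhibition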
[23] = inhibitors of HIV Env-driven cell fusion, dose response, cherry-pick (AID 652057); assay type: functional, cell-based
[24] = target: FAD-linked sulfhydryl oxidase ALR (Homo sapiens, UniProt P55789); experiment: inhibitors of human ALR sulfhydryl oxidase, dose response, biochemical, H2O2 detection, luminescence, cherry-pick (AID 493248)
Leucine aminopeptidase = target: T5, Leucine aminopeptidase (Plasmodium falciparum 3D7, UniProt Q8IL11); experiment: P. falciparum M17LAP inhibitors, primary screen, biochemical, fluorogenic H-Leu-NHMec substrate, 1536-well (AID 1619); assay type: functional
T5 sequence (Q8IL11 whole entry): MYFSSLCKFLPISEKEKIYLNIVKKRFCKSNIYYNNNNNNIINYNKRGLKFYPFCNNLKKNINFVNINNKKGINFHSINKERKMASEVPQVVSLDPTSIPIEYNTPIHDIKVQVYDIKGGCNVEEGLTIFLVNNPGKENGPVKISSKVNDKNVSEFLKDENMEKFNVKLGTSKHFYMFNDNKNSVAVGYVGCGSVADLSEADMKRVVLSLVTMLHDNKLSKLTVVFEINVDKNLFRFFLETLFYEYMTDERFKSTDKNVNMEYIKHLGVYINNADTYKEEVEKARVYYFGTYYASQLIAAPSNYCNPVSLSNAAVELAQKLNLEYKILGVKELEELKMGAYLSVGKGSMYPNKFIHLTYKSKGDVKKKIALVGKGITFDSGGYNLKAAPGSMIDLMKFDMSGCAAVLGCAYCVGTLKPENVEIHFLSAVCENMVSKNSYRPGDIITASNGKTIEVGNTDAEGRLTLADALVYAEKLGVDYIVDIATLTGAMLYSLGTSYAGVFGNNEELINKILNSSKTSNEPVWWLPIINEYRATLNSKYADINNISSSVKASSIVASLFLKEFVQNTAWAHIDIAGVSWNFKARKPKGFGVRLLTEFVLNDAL

Sequence of Mitogen-activated protein kinase 10 (P53779 whole entry): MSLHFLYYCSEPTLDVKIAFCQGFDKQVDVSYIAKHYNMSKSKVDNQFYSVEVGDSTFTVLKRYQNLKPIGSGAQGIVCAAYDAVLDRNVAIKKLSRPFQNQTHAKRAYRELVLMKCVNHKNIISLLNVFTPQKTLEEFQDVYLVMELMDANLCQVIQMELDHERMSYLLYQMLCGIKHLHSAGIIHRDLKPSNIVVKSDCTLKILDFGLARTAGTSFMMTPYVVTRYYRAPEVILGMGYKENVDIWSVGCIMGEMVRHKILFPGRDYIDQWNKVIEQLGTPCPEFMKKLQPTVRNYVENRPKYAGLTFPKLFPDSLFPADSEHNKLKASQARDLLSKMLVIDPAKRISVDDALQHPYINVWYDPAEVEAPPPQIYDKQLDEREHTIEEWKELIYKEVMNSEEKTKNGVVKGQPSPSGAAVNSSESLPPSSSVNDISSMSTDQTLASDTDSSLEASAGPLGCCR
Sequence of FAD-linked sulfhydryl oxidase ALR (P55789 whole entry): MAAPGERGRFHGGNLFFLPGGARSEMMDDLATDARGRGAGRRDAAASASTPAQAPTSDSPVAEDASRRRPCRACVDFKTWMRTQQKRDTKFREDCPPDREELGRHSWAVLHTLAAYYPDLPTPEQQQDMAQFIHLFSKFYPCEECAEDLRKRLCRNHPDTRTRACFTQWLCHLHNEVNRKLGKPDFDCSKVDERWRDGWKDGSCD

O=C(O)C1(c2ccc(Cl)cc2)CCC1
IC50 [1]: > 100 µM (not active)

O=c1c2ccccc2nnn1CSc1ccccc1F
EC50 [2]: > 67.5 µM (inactive)

COc1cc(N2Cc3ccccc3C2)ccc1C=O
IC50 [3]: > 7 µM (active)

Cc1ccccc1-n1nc(C)c2cc(C(=O)NCc3cccnc3)sc21
IC50 [4]: 10.6 µM (not active)

CC(NC(=O)c1ccco1)C(c1cccs1)N1CCOCC1 (stereo not drawn)
IC50 [1]: > 100 µM (not active)

COc1cc(NC(=O)C2CC(c3cccc(OC)c3OC)=NO2)cc(OC)c1OC (stereo not drawn)
IC50 [4]: 4.19 µM (active)

Cc1cccc(NC(=O)c2ccc3ccccc3n2)c1C
EC50 [2]: > 67.5 µM (inactive)

COc1ccc(CCNCc2ccc(C)s2)cc1OC
CC50 [5]: > 40 µM (active) | IC50 [6]: > 100 µM (active)

Cc1ccnc(NC(=O)/C=C/c2cccs2)c1
EC50 [2]: > 67.6 µM (inactive)

COc1ccc(CCNC(=O)C(C)n2nc(C)c3c(C)n(-c4ccc(C)cc4)nc3c2=O)c(OC)c1 (stereo not drawn)
IC50 [7]: 5.2 µM (active)

CCc1ccc(N/C(SCc2cccc(F)c2)=C(/C#N)C(=O)NCc2ccco2)cc1
EC50 [8]: 10.4 µM (active) | CC50 [9]: > 40 µM (active) | EC50 [10]: 1.7 µM (active)

C=CCOc1c(CNc2cccc(C(=O)O)c2)cccc1OC
IC50 [3]: 2.39 µM (active)

O=C(NCCCn1ccnc1)c1cc(-c2cccs2)on1
EC50 [11]: 16.9 µM (active) | EC50 [12]: 12.4 µM (active) | EC50 (cells [13]): 13.2 µM (active) | EC50 (cells [14]): > 350 µM (not active) | EC50 (H4): 12.3 µM (active) | EC50 [2]: > 67.5 µM (inactive)

COc1ccc(S(=O)(=O)NC2CC(C)(C)NC(C)(C)C2)c(C)c1C
IC50 [6]: > 100 µM (active)

COc1cc(NC(=O)COc2cc(O)c3c(c2)OC(C)(C)CC3=O)cc(OC)c1OC
AC50 [15]: 0.354 µM (active) | IC50 (Jurkat): 39.9 µM (inactive) | AC50 (INS1): 3.99 µM (active) | AC50 [16]: 2.04 µM (active) | AC50 [17]: 5.36 µM (active) | AC50 [18]: 0.727 µM (active) | IC50 [7]: 2.54 µM (active) | IC50 [19]: 69.1 µM (inactive)

CN1CCN(c2ccccc2NC(=O)C(Cc2ccccc2)n2cccc2)CC1 (stereo not drawn)
AC50 [20]: 6.39 µM (active) | AC50 [21]: 17.5 µM (active) | AC50 [22]: 12.3 µM (active) | AC50 [23]: 6.11 µM (active) | IC50 [6]: > 100 µM (active)

Fc1ccc(C(CCCn2nnc(-c3cccnc3)n2)c2ccc(F)cc2)cc1
EC50 [8]: > 30 µM (not active) | EC50 [11]: 16.3 µM (active) | EC50 [12]: 13.7 µM (active) | EC50 (H4): > 120 µM (not active) | CC50 [9]: > 40 µM (active) | EC50 [10]: 2.22 µM (active)

Cc1ccc(-c2csc(NC(=O)C3CCN(S(=O)(=O)c4cccs4)CC3)n2)cc1
IC50 (Jurkat): 8.06 µM (active) | IC50 [7]: 8.11 µM (active) | IC50 [19]: > 80 µM (inactive)

Cc1c(C(=O)NCc2ccc(C(C)C)cc2)sc(=O)n1Cc1ccc(S(=O)(=O)N(C)C)cc1
IC50 [7]: 6.46 µM (active)

COc1cc(/C=N/Nc2ccc(Cl)c(C(=O)O)c2)ccc1OC(=O)c1cccs1
IC50 [3]: 1.32 µM (active) | AC50 [24]: 5.23 µM (active) | IC50 (Leucine aminopeptidase): 55.5 µM (active)

From ChEMBL document CHEMBL1201862, “PubChem BioAssay data set” (2004)
